This is an account of results in US11261175B2 (priority 2017, dated 2022).

Where only a bound is given, the exact number is not on record here.

What all share (format): cell-based
The subject of experiment [1] is JFH5a-Rluc-ad34 virus (HCV GT-2a). Nature of the experiment: Anti-HCV activity using HCVcc (JFH5a-Rluc-ad34 virus) in Huh 7.5.1 cells, Renilla luciferase readout. The settings on record: Hepatitis C virus, GT2A, Huh-7.5.1, 72 h, read-out: HCV wt. GT-2a. The procedure:
<Experimental Example 1> Measurement of Anti-HCV Activity of Compounds of Examples Using HCVcc
Step 1: Cell Line and Cell Culture
Huh 7.5.1 cells were grown in Dulbecco's Modified Eagle's medium (DMEM; Gibco) supplemented with antibiotics (100 U/mL penicillin, 10 μg/mL streptomycin) and 10% heat-inactivated fetal bovine serum (ΔFBS; PEAK) in a CO2 incubator at 37° C. with […].
Huh7.5.1 cells were transfected with in vitro transcription RNA of JFH5a-Rluc-ad34, a derivative of JFH1 with adaptive mutations in E2 and p7 regions, by electroporation. JFH5a-Rluc-ad34 virus contains Renilla luciferase (Rluc), which is convenient for virus proliferation assay. The cell culture medium containing HCV was collected 3-5 days after the electroporation and then filtered through a […] pore size filter.
Step 3: Antiviral Activity Test Using Infectious HCV Particles
Huh 7.5.1 cells were inoculated with JFH5a-Rluc-ad34 virus and incubated for 4 hours. Four hours after the virus inoculation, the Huh7.5.1 cells infected with HCV were cultured in the medium containing the compound of examples serially diluted. Three days later, the cells were harvested and the intracellular luciferase activity was measured using Renilla luciferase assay system (Promega). Finally, the luciferase activity was normalized with those obtained from the negative control cells (mock-treated cells).

The subject of experiment [2] is HCV replicon NK5.1-Gluc (genotype 1b). Nature of the experiment: Anti-HCV activity using HCV replicon NK5.1-Gluc (genotype 1b) in Huh 7.5.1 cells, luciferase readout. The settings on record: Hepatitis C virus, 72 h; Huh 7.5.1 cells with NK5.1-Gluc replicon, 3 days, Gaussia luciferase; read-out: HCV wt. GT-1b.
Experiment [3] concerns HCV genotype 1b replicon with NS5A Y93H mutation. Briefly: Transiently transfected assay of genotype 1b resistance mutant RNA Y93H. The settings on record: Hepatitis C virus, Huh-7.5.1, 72 h, read-out: HCV Mutation Y93H. From the text: (§1) <Experimental Example 3> Transiently Transfected Assay of Genotype 1b Resistance Mutant RNAs
(§2) Replicon genomes substituted with Y93H, L31V and L31V+Y93H (double mutant), the resistance mutants to Daclatasvir with mutations at the NS5A protein domain 1.
(§3) These HCV resistance mutant genomes were linearized with scal restriction enzyme, and then the mutated HCV RNA was synthesized through in vitro transcription. Huh 7.5.1 cells were individually electroporated with HCV RNA with resistant mutations and plated in a 12 well plate. After 4 hours, Huh7.5.1 cells were seeded in DMEM containing the compounds of examples serially diluted for 3 days. Three days later, the cells were harvested and the intracellular luciferase activity was measured. The luciferase activity was normalized with those obtained from the negative control cells (mock-treated cells).

Experiment [4] has as its system HCV genotype 1b replicon with NS5A L31V mutation. Briefly: Transiently transfected assay of genotype 1b resistance mutant RNA L31V. The settings on record: Hepatitis C virus, Huh-7.5.1, 72 h, read-out: HCV Mutation L31V.
Text: as §1, §2, §3

In experiment [5] the test system is HCV replicon S52-Feo (genotype 3a). Nature of the experiment: Anti-HCV activity using HCV replicon S52-Feo (genotype 3a) in Huh 7.5.1 cells, luciferase readout. The settings on record: Hepatitis C virus, 72 h; Huh 7.5.1 cells with S52-Feo replicon, 3 days, firefly luciferase; read-out: HCV wt. GT-3a. Background: In antiviral work, replicon cells carry a viral genome segment that copies itself.

The subject of experiment [6] is HCV genotype 1b replicon with NS5A L31V+Y93H (double mutant). Nature of the experiment: Transiently transfected assay of genotype 1b resistance mutant RNA L31V+Y93H (double mutant). The settings on record: Hepatitis C virus, Huh-7.5.1, 72 h, read-out: HCV Mutation L31V + Y93H.
Text: as §1, §2, §3

Regarding `CCCC1(CCC)c2cc(NC(=O)[C@@H]3CCCN3C(=O)[C@H](NC(=O)OC)c3ccccc3)ccc2-c2ccc(NC(=O)[C@@H]3CCCN3C(=O)[C@H](NC(=O)OC)c3ccccc3)cc21` [Example 1, dimethyl ((1R,1′R)-((2S,2′S)-(((9,9-dipropyl-9H-fluorene-2,7-diyl)bis(azanediyl))bis(carbonyl))bis(pyrrolidine-2,1-diyl))bis(2-oxo-1-phenylethane-2,1-diyl))dicarbamate], the EC50 in experiment [1] is 1000 to 100000 pM; in experiment [2], 10 to 100 pM; in experiment [3], 1000 to 100000 pM; in experiment [4], 100 to 1000 pM; in experiment [5] it was 100 to 1000 pM; in experiment [6], over 100000 pM.
For the compound `CCCCC1(CCCC)c2cc(NC(=O)[C@@H]3CCCN3C(=O)[C@H](NC(=O)OC)c3ccccc3)ccc2-c2ccc(NC(=O)[C@@H]3CCCN3C(=O)[C@H](NC(=O)OC)c3ccccc3)cc21` [Example 2, dimethyl ((1R,1′R)-((2S,2′S)-(((9,9-dibutyl-9H-fluorene-2,7-diyl)bis(azanediyl))bis(carbonyl))bis(pyrrolidine-2,1-diyl))bis(2-oxo-1-phenylethane-2,1-diyl))dicarbamate], the EC50 in experiment [1] was in the range of 1000 to 100000 pM; in experiment [2], 1 to 10 pM; in experiment [3], 100 to 1000 pM; in experiment [4], 1 to 10 pM; in experiment [5], 10 to 100 pM; in experiment [6] it was 1000 to 100000 pM.
On to `CCCC1(CCC)c2cc(NC(=O)[C@@H]3CCCN3C(=O)[C@H](NC(=O)OC)c3ccccc3)ccc2-c2ccc(-c3cnc([C@@H]4CCCN4C(=O)[C@@H](NC(=O)OC)C(C)C)[nH]3)cc21` [Example 3, methyl ((S)-1-((S)-2-(5-(9,9-dipropyl-7-((S)-1-((R)-2-((methoxycarbonyl)amino)-2-phenylacetyl)pyrrolidine-2-carboxyamido)-9H-fluorene-2-yl)-1H-imidazole-2-yl)pyrrolidine-1-yl)-3-methyl-1-oxobutane-2-yl)carbamate], for which the EC50 lay within 10 to 100 pM in experiment [1]; 10 to 100 pM in experiment [2]; 10 to 100 pM in experiment [3]; 10 to 100 pM in experiment [4]; 10 to 100 pM in experiment [5]; 1000 to 100000 pM in experiment [6].
Regarding `COC(=O)N[C@@H](C(=O)N1CCC[C@H]1C(=O)Nc1ccc2c(c1)C(CCCC(F)(F)F)(CCCC(F)(F)F)c1cc(NC(=O)[C@@H]3CCCN3C(=O)[C@H](NC(=O)OC)c3ccccc3)ccc1-2)c1ccccc1` [Example 4, dimethyl ((1R,1′R)-((2S,2′S)-(((9,9-bis(4,4,4-trifluorobutyl)-9H-fluorene-2,7-diyl)bis(azanediyl))bis(carbonyl))bis(pyrrolidine-2,1-diyl))bis(2-oxo-1-phenylethane-2,1-diyl))dicarbamate], the EC50 in experiment [1] was 1000 to 100000 pM; in experiment [2], 1 to 10 pM; in experiment [3], over 100000 pM; in experiment [4], 100 to 1000 pM; in experiment [5] it was 10 to 100 pM; in experiment [6] it was 1000 to 100000 pM.
`COC(=O)N[C@H](C(=O)N1CCC[C@@H]1C(=O)Nc1ccc2c(c1)C(CCCCC(F)(F)F)(CCCCC(F)(F)F)c1cc(NC(=O)[C@@H]3CCCN3C(=O)[C@H](NC(=O)OC)c3ccccc3)ccc1-2)c1ccccc1` [Example 5, methyl ((R)-2-((S)-2-((7-((R)-1-((S)-2-((methoxycarbonyl)amino)-2-phenylacetyl)pyrrolidine-2-carboxyamido)-9,9-bis(5,5,5-trifluoropentyl)-9H-fluorene-2-yl)carbamoyl)pyrrolidine-1-yl)-2-oxo-1-phenylethyl)carbamate]: the EC50 was 1000 to 100000 pM in experiment [1]; 1 to 10 pM in experiment [2]; over 100000 pM in experiment [3]; 100 to 1000 pM in experiment [4]; 10 to 100 pM in experiment [5]; over 100000 pM in experiment [6].
As for `CCCCC1(CCCC)c2cc(NC(=O)[C@@H]3CC(=O)CN3C(=O)[C@H](NC(=O)OC)c3ccccc3)ccc2-c2ccc(NC(=O)[C@@H]3CC(=O)CN3C(=O)[C@H](NC(=O)OC)c3ccccc3)cc21` [Example 6, dimethyl ((1R,1′R)-((5S,5′S)-(((9,9-dibutyl-9H-fluorene-2,7-diyl)bis(azanediyl))bis(carbonyl))bis(3-oxopyrrolidine-5,1-diyl))bis(2-oxo-1-phenylethane-2,1-diyl))dicarbamate], the EC50 in experiment [1] was in the range of 100 to 1000 pM; in experiment [2], 10 to 100 pM; in experiment [3] it was 100 to 1000 pM; in experiment [4], 1 to 10 pM; in experiment [5], 10 to 100 pM; in experiment [6], 1000 to 100000 pM.
As for `CCCCC1(CCCC)c2cc(NC(=O)[C@@H]3CC(=O)CN3C(=O)[C@H](NC(=O)OC)c3ccccc3)ccc2-c2ccc(NC(=O)[C@@H]3CC4(CN3C(=O)[C@H](NC(=O)OC)c3ccccc3)OCCO4)cc21` [Example 7, methyl ((R)-2-((S)-8-((9,9-dibutyl-7-((S)-1-((R)-2-((methoxycarbonyl)amino)-2-phenylacetyl)-4-oxopyrrolidine-2-carboxyamido)-9H-fluorene-2-yl)carbamoyl)-1,4-dioxa-7-azaspiro[4.4]nonane-7-yl)-2-oxo-1-phenylethyl)carbamate], the EC50 in experiment [1] lay within 1000 to 100000 pM; in experiment [2] it was 10 to 100 pM; in experiment [3], 10 to 100 pM; in experiment [4], 1 to 10 pM; in experiment [5], 10 to 100 pM; in experiment [6], 100 to 1000 pM.
Turning to `CCC1(CC)c2cc(NC(=O)[C@@H]3CCCN3C(=O)[C@H](NC(=O)OC)c3ccccc3)ccc2-c2ccc(-c3cnc([C@@H]4CCCN4C(=O)[C@@H](NC(=O)OC)C(C)C)[nH]3)cc21` [Example 8, methyl ((S)-1-((S)-2-(5-(9,9-diethyl-7-((S)-1-((R)-2-((methoxycarbonyl)amino)-2-phenylacetyl)pyrrolidine-2-carboxyamido)-9H-fluorene-2-yl)-1H-imidazole-2-yl)pyrrolidine-1-yl)-3-methyl-1-oxobutane-2-yl)carbamate], the EC50 fell in the range of 1 to 10 pM in experiment [1]; 1 to 10 pM in experiment [2]; 10 to 100 pM in experiment [3]; 10 to 100 pM in experiment [4]; 10 to 100 pM in experiment [5]; 1000 to 100000 pM in experiment [6].
Regarding `CCCCC1(CCCC)c2cc(NC(=O)[C@@H]3CC(F)(F)CN3C(=O)[C@H](NC(=O)OC)c3ccccc3)ccc2-c2ccc(NC(=O)[C@@H]3CC(F)(F)CN3C(=O)[C@H](NC(=O)OC)c3ccccc3)cc21` [Example 20, dimethyl ((1R,1′R)-((5S,5′S)-(((9,9-dibutyl-9H-fluorene-2,7-diyl)bis(azanediyl))bis(carbonyl))bis(3,3-difluoropyrrolidine-5,1-diyl))bis(2-oxo-1-phenylethane-2,1-diyl))dicarbamate], the EC50 in experiment [1] was in the range of 1000 to 100000 pM; in experiment [2], 1 to 10 pM; in experiment [3] it was 1000 to 100000 pM; in experiment [4] it was 10 to 100 pM; in experiment [5] it was 10 to 100 pM.
On to `CCCCC1(CCCC)c2cc(NC(=O)[C@@H]3CC(F)(F)CN3C(=O)[C@H](NC(=O)OC)c3ccccc3)ccc2-c2ccc(NC(=O)[C@@H]3CC4(CC4)CN3C(=O)[C@H](NC(=O)OC)c3ccccc3)cc21` [Example 23], for which the EC50 in experiment [3] was 1000 to 100000 pM; in experiment [4], 1 to 10 pM; in experiment [6] it was over 100000 pM.
The like results for `CCCCC1(CCCC)c2cc(NC(=O)[C@@H]3CC(F)(F)CN3C(=O)[C@H](NC(=O)OC)c3ccccc3)ccc2-c2ccc(NC(=O)[C@@H]3C[C@@H]4CCC[C@@H]4N3C(=O)[C@H](NC(=O)OC)c3ccccc3)cc21` [Example 24] were, in that order, 1000 to 100000 pM, 1 to 10 pM and 1000 to 100000 pM.
